Measured values: patent US12611393B2, “Treatment of pain by targeting NR4A1” (UNIVERSITY OF CINCINNATI, priority 2019, dated 2026)

Legend:
[1] = tested on: mice with paclitaxel-induced mechanical allodynia; assay: Paclitaxel-induced neuropathic pain (CINP) model, mechanical allodynia; format: in vivo, mouse; settings: male WT mice, vs PBS
Text: FIGS. 9A and 9B are graphs showing that NR4A1 deficiency exacerbates chemotherapy-induced neuropathic pain and neuroinflammation in DRG tissue.
FIGS. 10A and 10B are graphs showing that NA4A1 activation by Cytosporone B (Csn-B) prevents and reverses chemotherapy induced neuropathic pain. […]

[2] = tested on: mice after plantar incision (postoperative pain); assay: Plantar incision model of postoperative pain (von Frey filaments, Hargreaves test); format: in vivo, mouse; settings: vs vehicle; for resolution of postoperative pain (mechanical and thermal hypersensitivity): von Frey filaments and Hargreaves test
Experimental: (§1) To investigate the underlying mechanisms of postoperative pain, we adopted a mouse model that is characterized by increased pain sensitivity and macrophage infiltration after a surgical incision made in the plantar aspect of the hind paw. Pain sensitivity and macrophage infiltration were evaluated in NA4A1 knockout (KO) mice. Expression and function of NR4A1 were also evaluated in neuronal and skin tissues, as well as in cultured macrophages.
We used a well-characterized animal model of postoperative pain consisting in plantar incision (FIG. 1). Specifically, FIGS. 1A-1C show an animal model of post-operative pain. FIG. 1A illustrates the experimental design depicting the plantar incision and timeline for the behavioral tests. FIG. 1B is a graph showing how, after plantar incision, mice develop mechanical hypersensitivity (assessed by von Frey filaments) and FIG. 1C is a graph showing thermal hypersensitivity (assessed by Hargreaves test). […]
Cutaneous application of an NA4A1 agonist accelerates the resolution of post-operative pain. […] FIG. 4B is a graph showing mechanical hypersensitivity as assessed by von Frey filaments before injection of the drug (prevention). FIG. 4C is a graph showing mechanical hypersensitivity as assessed by von Frey filaments after drug injection (acute analgesia). FIG. 4D is a graph showing thermal hypersensitivity as assessed by Hargreaves test before injection of the drug (prevention). FIG. 4E is a graph showing thermal hypersensitivity as assessed by Hargreaves test after drug injection (acute analgesia). […]
FIG. 5B is a graph showing mechanical hypersensitivity as assessed by von Frey filaments before injection of the drug (prevention), and FIG. 5C is a graph showing mechanical hypersensitivity as assessed by von Frey filaments after drug injection (acute analgesia). FIG. 5D is a graph showing thermal hypersensitivity as assessed by Hargreaves test before injection of the drug (prevention). FIG. 5D is a graph showing thermal hypersensitivity as assessed by Hargreaves test after drug injection (acute analgesia). […]

[3] = tested on: NR4A1 knockout male mice after plantar incision; assay: Plantar incision model of postoperative pain in NR4A1 knockout mice (von Frey filaments, Hargreaves test); format: in vivo, mouse; settings: local intraplantar injection, vs vehicle
Experimental: as §1
We used a well-characterized animal model of postoperative pain consisting in plantar incision (FIG. 1). Specifically, FIGS. 1A-1C show an animal model of post-operative pain. FIG. 1A illustrates the experimental design depicting the plantar incision and timeline for the behavioral tests. FIG. 1B is a graph showing how, after plantar incision, mice develop mechanical hypersensitivity (assessed by von Frey filaments) and FIG. 1C is a graph showing thermal hypersensitivity (assessed by Hargreaves test). These hypersensitivities are indicative of postoperative pain and resolve in 7 days. n=6 male mice per group, One-way ANOVA, *p<0.05 (Bonferroni).
FIG. 6A is a graph showing mechanical hypersensitivity as assessed by von Frey filaments, and FIG. 6B is a graph showing thermal hypersensitivity as assessed by Hargreaves test. […]

Peritoneal macrophages = assay: Expression of pro-inflammatory mediators in cultured peritoneal macrophages activated with LPS; format: cell-based, mouse; settings: Cyto B 10 μg/ml, LPS 20 ng/ml
Experimental: Peritoneal macrophages were cultured and incubated with vehicle control, cytosporone B (Cyto B, 10 μg/ml) or/and the macrophage activator lipopolysaccharide (LPS, 20 ng/ml). n=4-8 cultures per group, One-way ANOVA, *p<0.05 (Vehicle vs. LPS, Bonferroni), #p<0.05 (LPS VS. LPS+Cyto B, Bonferroni).

CCCCCCCC(=O)c1c(O)cc(O)cc1CC(=O)OCC [Cytosporone B]
prevention of mechanical allodynia (chemotherapy induced neuropathic pain) ([1]; paclitaxel 2 mg/kg every other day x4, Csn-B intrathecal (i.t.) given with paclitaxel): significantly prevent | reversal of mechanical allodynia (chemotherapy induced neuropathic pain) ([1]; treatment 14 d after first paclitaxel delivery, different doses of Csn-B): reverse | resolution of postoperative pain (mechanical and thermal hypersensitivity) ([2]; female mice, local intraplantar injection): accelerates the resolution of postoperative pain | resolution of postoperative pain (mechanical and thermal hypersensitivity) ([2]; male mice, local intraplantar injection (i.pl.)): accelerates the resolution of postoperative pain | effect on postoperative pain (mechanical and thermal hypersensitivity) ([2]; male mice, systemic intraperitoneal injection): limited effects on postoperative pain | resolution of postoperative pain (mechanical and thermal hypersensitivity) [3]: fails to resolve postoperative pain | expression of pro-inflammatory mediators in macrophages (Peritoneal macrophages): decreases the expression of pro-inflammatory mediators
